# Key:
# [1] = target: T1, human estrogen β receptor (hERβ) (Homo sapiens, UniProt Q92731); experiment: transactivation assay in recombinant CHO cells (rat oxytocin promoter, luciferase reporter), β; assay type: cell-based; conditions: potency ratio, in percentage of the action of the reference compound in the assay
# T1 construct: expressed in transfected cells; host or cells: CHO cells with rat oxytocin promoter and luciferase reporter (no ERβ line named)
# Protocol: (§1) Compounds are tested for their estrogen receptor activity in a binding assay and in a transactivation assay.
# (§2) The antiestrogenic activity of compounds is determined in an in vitro bioassay with recombinant Chinese hamster ovary (CHO) cells stably co-transfected with the human estrogen receptor α (hERα) or β receptor (hERβ), the rat oxytocin promoter (RO) and the luciferase reporter gene (LUC). The antiestrogenic activity (potency ratio) of a test compound to inhibit the transactivation of the enzyme luciferase mediated via the estrogen receptor by the estrogen Org 2317 (estradiol, 1, 3, 5 (10)-estratriene-3,17β-diol) is compared with the standard Org 34790 (ICI 164.384; (7α,17β)-N-butyl-3,17-dihydroxy-N-methylestra-1,3,5 (10)-triene-7-undecanamide).
# (§3) Test medium: Intact recombinant CHO cells stably co-transfected with the human estrogen receptor, the rat oxytocin promoter and the luciferase reporter gene. The cell line has been produced within the Department of Biotechnology and Biochemistry (BBC) (N.V. Organon) and is known under the name CHO-ERRO 2B1-1E9.
# (§4) The data are expressed in percentage of the action of the reference compound in the assay
# [2] = target: T2, human estrogen receptor α (hERα) (Homo sapiens, UniProt P03372); experiment: competitive binding to cytoplasmic human estrogen receptor from recombinant CHO cells (α-binding); conditions: relative affinity (potency ratio), in percentage of the action of the reference compound in the assay; cytosol of recombinant CHO cells
# T2 construct: expressed in transfected cells; host or cells: CHO cells, line CHO-ERRO 2B1-1E9, with rat oxytocin promoter and luciferase reporter
# T2 sequence (P03372 1-595): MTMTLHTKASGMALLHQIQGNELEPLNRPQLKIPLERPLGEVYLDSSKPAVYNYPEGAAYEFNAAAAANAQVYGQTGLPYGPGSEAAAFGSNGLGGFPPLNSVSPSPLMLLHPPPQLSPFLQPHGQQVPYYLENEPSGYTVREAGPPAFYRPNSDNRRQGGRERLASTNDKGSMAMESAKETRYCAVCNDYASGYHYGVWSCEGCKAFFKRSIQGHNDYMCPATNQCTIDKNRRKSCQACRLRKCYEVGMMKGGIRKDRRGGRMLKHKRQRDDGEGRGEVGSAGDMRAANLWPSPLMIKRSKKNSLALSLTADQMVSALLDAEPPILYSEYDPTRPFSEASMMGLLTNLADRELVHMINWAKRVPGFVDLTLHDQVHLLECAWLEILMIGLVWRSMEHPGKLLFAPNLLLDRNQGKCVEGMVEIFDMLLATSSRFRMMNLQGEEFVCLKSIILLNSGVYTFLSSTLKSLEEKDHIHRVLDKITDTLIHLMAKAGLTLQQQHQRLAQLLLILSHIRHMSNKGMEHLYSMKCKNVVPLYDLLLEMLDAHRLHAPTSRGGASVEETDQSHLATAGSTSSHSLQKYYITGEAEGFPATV
# Protocol: (§5) Compounds are tested for their estrogen receptor activity in a binding assay and in a transactivation assay. Determination of competitive binding to cytoplasmic human estrogen receptor from rec.CHO cells is used to estimate the relative affinity (potency ratio) of a test compound for estrogen receptors present in the cytosol of recombinant Chinese hamster ovary (CHO) cells, stably transfected with the human estrogen receptor, as compared with estradiol (E2). Cytosol prepared from recombinant CHO cells, stably transfected with the human estrogen receptor. The cell line has been made within the Department of Biotechnology and Biochemistry (BBC) (N.V. Organon) and is known under the name CHO-ER (2B1). Reference compounds are ethinylestradiol and estriol. The data are expressed in percentage of the action of the reference compound in the assay
# [3] = target: T1, human estrogen β receptor (hERβ); experiment: competitive binding to cytoplasmic human estrogen receptor from recombinant CHO cells (β-binding); conditions: relative affinity (potency ratio), in percentage of the action of the reference compound in the assay; cytosol of recombinant CHO cells
# Protocol: as §5
# [4] = target: T2, human estrogen receptor α (hERα); experiment: transactivation assay in recombinant CHO cells (rat oxytocin promoter, luciferase reporter), α; assay type: cell-based; conditions: potency ratio, in percentage of the action of the reference compound in the assay
# Protocol: as §1, §2, §3, §4
# T1 sequence (Q92731 whole entry): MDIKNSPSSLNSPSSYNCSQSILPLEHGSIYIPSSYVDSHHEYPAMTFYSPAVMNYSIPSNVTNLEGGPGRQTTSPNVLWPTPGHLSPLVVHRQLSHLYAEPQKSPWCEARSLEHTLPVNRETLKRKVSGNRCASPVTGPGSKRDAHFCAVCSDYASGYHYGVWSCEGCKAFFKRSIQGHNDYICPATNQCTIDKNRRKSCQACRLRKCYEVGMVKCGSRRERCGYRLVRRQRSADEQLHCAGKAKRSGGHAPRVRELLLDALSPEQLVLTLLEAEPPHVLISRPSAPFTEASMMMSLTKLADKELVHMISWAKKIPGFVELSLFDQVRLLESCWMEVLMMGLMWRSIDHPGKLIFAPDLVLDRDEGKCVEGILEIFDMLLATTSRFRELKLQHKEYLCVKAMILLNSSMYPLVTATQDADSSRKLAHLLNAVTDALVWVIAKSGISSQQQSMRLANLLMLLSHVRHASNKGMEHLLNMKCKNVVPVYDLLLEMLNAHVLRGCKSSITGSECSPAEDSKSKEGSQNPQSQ
Structure (SMILES),β-transactivation [1] [percentage],α-binding. [2],β-binding [3] [percentage],α-transactivation [4] [percentage]
"C#C[C@]1(O)CCC2C3CCC4=C(CC[C@H](O)C4)C3[C@@H](CCC=C)C[C@@]21C (stereo partly drawn) [Compound 43, (3β,11β,17β)-11-(3-butenyl)-19-norpregn-5(10)-en-20-yne-3,17-diol]",<0.1,11.9 percentage,0.1,1.3
C#C[C@]1(O)[C@H](C)CC2C3C(C(=C)C[C@@]21C)C1CC[C@H](O)C[C@@H]1C[C@H]3C (stereo partly shown) [Compound 81],0.1,–,–,27
"C#C[C@]1(O)CCC2C3CC[C@H]4C[C@@H](O)CCC4C3[C@@H](C(F)F)C[C@@]21C (stereo partly drawn) [Compound 21, (3β,5α,11β,17β)-11-difluoromethyl-19-norpregn-20-yne-3,17-diol]",0.1,8.6 percentage,0.2,7.7
"C#C[C@]1(O)CCC2C3CCC4=C(CC[C@@H](O)C4)C3[C@@H](CCC=C)C[C@@]21C (stereo partly drawn) [Compound 42, (3α,11β,17β)-11-(3-butenyl)-I9-norpregn-5(10)-en-20-yne-3,17-diol]",<0.04,29 percentage,0.1,2
"C#C[C@]1(O)CCC2C3CC[C@H]4C[C@@H](O)CCC4C3[C@@H](CCF)C[C@@]21C (stereo partly drawn) [Compound 31, (3β,5α,11β,17β)-11-(2-fluoroethyl)-19-norpregn-20-yne-3,17-diol]",0.2,37 percentage,0.1,9.6
"C#C[C@]1(O)CCC2C3C(C4=C(C[C@H](O)CC4)C[C@H]3C)[C@@H](CCF)C[C@@]21C (stereo partly drawn) [Compound 55, (3α,7α,11β,17β)-11-(2-fluoroethyl)-7-methyl-19-norpregn-5(10)-en-20-yne-3,17-diol]",1.9,36 percentage,0.1,61.5
"C#C[C@]1(O)CCC2C3CC[C@H]4C[C@H](O)CCC4C3[C@@H](CCF)C[C@@]21C (stereo partly drawn) [Compound 32, (3α,5α,11β,17β)-11-(2-fluoroethyl)-19-norpregn-20-yne-3,17-diol]",0.1,"2,6 percentage",<0.1,2.4
"C#C[C@]1(O)CCC2C3CCC4=C(CC[C@@H](O)C4)C3[C@@H](CC=C)C[C@@]21C (stereo partly drawn) [Compound 11, (3α,11β,17β)-11-(2-propenyl)-19-norpregn-5(10)-en-20-yne-3,17-diol]",0.8,57 percentage,1.1,58
"C#C[C@]1(O)CCC2C3C(C4=C(C[C@@H](O)CC4)C[C@H]3C)[C@@H](CCF)C[C@@]21C (stereo partly drawn) [Compound 54, (3β,7α,11β,17β)-11-(2-fluoroethyl)-7-methyl-19-norpregn-5(10)-en-20-yne-3,17-diol]",1.0,"27,5 percentage",0.1,29.7
